These results are taken from patent publication US10508085B2, “Compounds and methods for IDO and TDO modulation, and indications therefor” (Plexxikon Inc., priority 2016, dated 2019).

Molecules are shown by their SMILES.

In assay [1] the target is T1, human TDO (TDO-expressing HEK293 cells) (Homo sapiens, UniProt P48775).
T1 construct: expressed in transfected cells
The assay can be described thus: Cell based kynurenine assay, TDO-expressing HEK293 cell clones. As to conditions: TDO-expressing HEK293 cells, 24 hours, geometric mean; read-out: HEK293 TDO Kynurenine GMean IC50 (μM) (Cellular Assay). In short, it runs like this:
(§1)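 Kynurenine in culture supernatant read after 24 h compound exposure of HEK293 cells stably expressing human IDO1 or TDO. IC50 from nonlinear regression of % inhibition relative to 0.2% DMSO cell (high) and media-only (low) controls.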

Assay [2] concerns the target T2, human IDO (IDO1-expressing HEK293 cells) (Homo sapiens, UniProt P14902).
T2 construct: expressed in transfected cells
The assay can be described thus: Cell based kynurenine assay, IDO1-expressing HEK293 cell clones. As to conditions: IDO1-expressing HEK293 cells, 24 hours, geometric mean; read-out: HEK293 IDO1 Kynurenine GMean IC50 (μM) (Cellular Assay). In short, it runs like this: as §1

In assay [3] the target is T3, Human Indoleamine 2,3-dioxygenase (IDO) (Homo sapiens, UniProt P14902).
T3 construct: His tag (N); made in house; host or cells: E. coli
Put plainly: Human IDO enzymatic assay (kynurenine level). It is filed as biochemical. As to conditions: 6 nM IDO, 10 μM L-Trp; geometric mean; read-out: IDO1 GMean: IC50 (μM) (Biochemical Assay). In a few lines:
(§2)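 IDO conditions: 6 nM His-IDO, 10 μM L-Trp, 5 μM methylene blue, 20 min, RT. TDO conditions: 1 nM His-TDO, 350 μM L-Trp, 0.4 μM methylene blue, 70 min, RT. Both used pH 6.5 phosphate plus ascorbate/catalase, TCA stop at 50° C, kynurenine readout, nonlinear-regression IC50.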

The target in assay [4] is T4, Human Tryptophan 2,3-dioxygenase (TDO) (Homo sapiens, UniProt P48775).
T4 construct: His tag (N); made in house; host or cells: E. coli
The assay can be described thus: Human TDO enzymatic assay (kynurenine level). As to conditions: 1 nM TDO, 350 μM L-Trp; geometric mean; read-out: TDO GMean: IC50 (μM) (Biochemical Assay). Type of assay: biochemical. In short, it runs like this:
as §2

T4 sequence (P48775 whole entry): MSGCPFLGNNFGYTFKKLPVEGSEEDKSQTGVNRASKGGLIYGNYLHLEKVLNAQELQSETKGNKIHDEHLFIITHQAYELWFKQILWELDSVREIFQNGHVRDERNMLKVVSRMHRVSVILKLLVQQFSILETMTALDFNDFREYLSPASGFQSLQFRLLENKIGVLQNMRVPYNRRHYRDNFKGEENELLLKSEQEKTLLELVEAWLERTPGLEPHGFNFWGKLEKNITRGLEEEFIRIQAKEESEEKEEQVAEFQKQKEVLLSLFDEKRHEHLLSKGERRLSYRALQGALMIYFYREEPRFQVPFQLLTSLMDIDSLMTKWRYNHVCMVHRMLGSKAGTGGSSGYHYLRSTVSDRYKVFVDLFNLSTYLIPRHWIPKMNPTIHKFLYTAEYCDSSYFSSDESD
T1 sequence (P48775 whole entry): as above
T3 sequence (P14902 whole entry): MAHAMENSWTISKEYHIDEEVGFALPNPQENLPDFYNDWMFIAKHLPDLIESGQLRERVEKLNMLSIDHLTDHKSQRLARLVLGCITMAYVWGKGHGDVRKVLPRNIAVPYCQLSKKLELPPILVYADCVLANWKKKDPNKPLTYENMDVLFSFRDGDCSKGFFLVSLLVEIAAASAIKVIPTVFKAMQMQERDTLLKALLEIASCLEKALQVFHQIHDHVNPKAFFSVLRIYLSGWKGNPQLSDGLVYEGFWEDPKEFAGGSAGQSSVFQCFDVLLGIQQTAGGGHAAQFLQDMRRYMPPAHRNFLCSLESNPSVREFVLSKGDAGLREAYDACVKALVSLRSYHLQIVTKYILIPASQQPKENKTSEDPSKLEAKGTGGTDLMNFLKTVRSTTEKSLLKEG
T2 sequence (P14902 whole entry): as above

By IC50 is commonly meant the point on the concentration scale where inhibition reaches its midpoint. In the case of `COCC(=O)N1CCC(C(C)(C)[C@H](O)c2c(F)c(Cl)cc3cn[nH]c23)CC1` [Compound P-0506, (S)-1-(4-(1-(5-chloro-6-fluoro-1H-indazol-7-yl)-1-hydroxy-2-methylpropan-2-yl)piperidin-1-yl)-2-methoxyethan-1-one], the half-inhibitory concentration (IC50) in assay [1], in assay [2], in assay [3] and in assay [4] was 0.0001 to 10 µM throughout.
On to `CC(C)(C1CCN(C(=O)C2CCOCC2)CC1)[C@H](O)c1c(F)c(Cl)cc2cn[nH]c12` [Compound P-0507, (S)-(4-(1-(5-chloro-6-fluoro-1H-indazol-7-yl)-1-hydroxy-2-methylpropan-2-yl)piperidin-1-yl)(tetrahydro-2H-pyran-4-yl)methanone], for which the half-maximal inhibitory concentration (IC50) in assay [1], in assay [2], in assay [3] and in assay [4] was 0.0001 to 10 µM throughout.
On to `CNC(=O)N1CCC(C(C)(C)[C@H](O)c2c(F)c(Cl)cc3cn[nH]c23)CC1` [Compound P-0508, (S)-4-(1-(5-chloro-6-fluoro-1H-indazol-7-yl)-1-hydroxy-2-methylpropan-2-yl)-N-methylpiperidine-1-carboxamide], for which the IC50 in assay [1], in assay [2], in assay [3] and in assay [4] was 0.0001 to 10 µM throughout.
Take `CC(C)(C1CCN(C(=O)NC2CC2)CC1)[C@H](O)c1c(F)c(Cl)cc2cn[nH]c12` [Compound P-0509, (S)-4-(1-(5-chloro-6-fluoro-1H-indazol-7-yl)-1-hydroxy-2-methylpropan-2-yl)-N-cyclopropylpiperidine-1-carboxamide]: the half-inhibitory concentration (IC50) in assay [1], in assay [2], in assay [3] and in assay [4] was 0.0001 to 10 µM each time.
Take `COCCNC(=O)N1CCC(C(C)(C)[C@H](O)c2c(F)c(Cl)cc3cn[nH]c23)CC1` [Compound P-0510, (S)-4-(1-(5-chloro-6-fluoro-1H-indazol-7-yl)-1-hydroxy-2-methylpropan-2-yl)-N-(2-methoxyethyl) piperidine-1-carboxamide]: the IC50 in assay [1], in assay [2], in assay [3] and in assay [4] was 0.0001 to 10 µM each time.
As for `CC(C)(C1CCN(C(=O)NCC(F)(F)F)CC1)[C@H](O)c1c(F)c(Cl)cc2cn[nH]c12` [Compound P-0511, (S)-4-(1-(5-chloro-6-fluoro-1H-indazol-7-yl)-1-hydroxy-2-methylpropan-2-yl)-N-(2,2,2-trifluoroethyl) piperidine-1-carboxamide], the IC50 in assay [1], in assay [2], in assay [3] and in assay [4] was 0.0001 to 10 µM throughout.
Consider `CC(C)(C1CCN(C(=O)Nc2ccc(F)cc2)CC1)[C@H](O)c1c(F)c(Cl)cc2cn[nH]c12` [Compound P-0512, (S)-4-(1-(5-chloro-6-fluoro-1H-indazol-7-yl)-1-hydroxy-2-methylpropan-2-yl)-N-(4-fluorophenyl) piperidine-1-carboxamide], for which the IC50 in assay [1], in assay [2], in assay [3] and in assay [4] was 0.0001 to 10 µM each time.
In the case of `CCOC(=O)NC(=O)N1CCC(C(C)(C)[C@H](O)c2c(F)c(Cl)cc3cn[nH]c23)CC1` [Compound P-0513, ethyl (S)-(4-(1-(5-chloro-6-fluoro-1H-indazol-7-yl)-1-hydroxy-2-methylpropan-2-yl)piperidine-1-carbonyl)carbamate], the 50% inhibitory concentration (IC50) in assay [1], in assay [2], in assay [3] and in assay [4] was 0.0001 to 10 µM in each case.
Take `CC(C)(C1CCN(C(=O)NC(=O)c2ccccc2)CC1)[C@H](O)c1c(F)c(Cl)cc2cn[nH]c12` [Compound P-0514, (S)-N-benzoyl-4-(1-(5-chloro-6-fluoro-1H-indazol-7-yl)-1-hydroxy-2-methylpropan-2-yl)piperidine-1-carboxamide]: the IC50 in assay [1], in assay [2], in assay [3] and in assay [4] was 0.0001 to 10 µM each time.
For `CC(C)(C1CCN(S(C)(=O)=O)CC1)[C@H](O)c1c(F)c(Cl)cc2cn[nH]c12` [Compound P-0515, (S)-1-(5-chloro-6-fluoro-1H-indazol-7-yl)-2-methyl-2-(1-(methylsulfonyl)piperidin-4-yl) propan-1-ol], the concentration for half-maximal inhibition (IC50) in assay [1], in assay [2], in assay [3] and in assay [4] was 0.0001 to 10 µM throughout.
Turning to `CC(C)(C)OC(=O)N1CCC(C(F)(F)[C@H](O)c2cc(Cl)cc3cn[nH]c23)CC1` [Compound P-0516, tert-butyl (R)-4-(2-(5-chloro-1H-indazol-7-yl)-1,1-difluoro-2-hydroxyethyl) piperidine-1-carboxylate], the concentration for half-maximal inhibition (IC50) in assay [1], in assay [2], in assay [3] and in assay [4] was 0.0001 to 10 µM each time.
In the case of `CC(C)(C)OC(=O)N1CCC(C(F)(F)[C@@H](O)c2cc(Cl)cc3cn[nH]c23)CC1` [Compound P-0517, tert-butyl (S)-4-(2-(5-chloro-1H-indazol-7-yl)-1,1-difluoro-2-hydroxyethyl) piperidine-1-carboxylate], the IC50 in assay [1] was above 10 µM; in assay [2], above 10 µM; in assay [3] it was 0.0001 to 10 µM; in assay [4] it was above 200 µM.
With `CC(C)(C1CCN(C(=O)Cc2ccc(Cl)c(F)c2)CC1)[C@H](O)c1cc(Cl)cc2cn[nH]c12` [Compound P-0518, (S)-1-(4-(1-(5-chloro-1H-indazol-7-yl)-1-hydroxy-2-methylpropan-2-yl)piperidin-1-yl)-2-(4-chloro-3-fluorophenyl) ethan-1-one], the IC50 in assay [1], in assay [2], in assay [3] and in assay [4] was 0.0001 to 10 µM throughout.
Consider `CC(C)(C1CCN(C(=O)Cc2ccc(F)c(Cl)c2)CC1)[C@H](O)c1cc(Cl)cc2cn[nH]c12` [Compound P-0519, (S)-1-(4-(1-(5-chloro-1H-indazol-7-yl)-1-hydroxy-2-methylpropan-2-yl)piperidin-1-yl)-2-(3-chloro-4-fluorophenyl)ethan-1-one], for which the IC50 in assay [1], in assay [2], in assay [3] and in assay [4] was 0.0001 to 10 µM in each case.
Consider `O=C(Cc1cccc(Cl)c1)N1CCC(C(F)(F)C(O)c2cc(Cl)cc3cn[nH]c23)CC1` (centres unmarked) [Compound P-0520, 1-(4-(2-(5-chloro-1H-indazol-7-yl)-1,1-difluoro-2-hydroxyethyl)piperidin-1-yl)-2-(3-chlorophenyl) ethan-1-one], for which the half-inhibitory concentration (IC50) in assay [1], in assay [2], in assay [3] and in assay [4] was 0.0001 to 10 µM each time.
Take `COc1ccc(CC(=O)N2CCC(C(F)(F)C(O)c3cc(Cl)cc4cn[nH]c34)CC2)cn1` (centres unmarked) [Compound P-0521, 1-(4-(2-(5-chloro-1H-indazol-7-yl)-1,1-difluoro-2-hydroxyethyl)piperidin-1-yl)-2-(6-methoxypyridin-3-yl)ethan-1-one]: the IC50 in assay [1], in assay [2], in assay [3] and in assay [4] was 0.0001 to 10 µM throughout.
For the compound `COc1cccc(CC(=O)N2CCC(C(F)(F)C(O)c3cc(Cl)cc4cn[nH]c34)CC2)c1` (centres unmarked) [Compound P-0522, 1-(4-(2-(5-chloro-1H-indazol-7-yl)-1,1-difluoro-2-hydroxyethyl)piperidin-1-yl)-2-(3-methoxyphenyl) ethan-1-one], the half-inhibitory concentration (IC50) in assay [1], in assay [2], in assay [3] and in assay [4] was 0.0001 to 10 µM throughout.
As to `O=C(Cc1ccc(Cl)c(F)c1)N1CCC(C(F)(F)C(O)c2cc(Cl)cc3cn[nH]c23)CC1` (centres unmarked) [Compound P-0523, 1-(4-(2-(5-chloro-1H-indazol-7-yl)-1,1-difluoro-2-hydroxyethyl)piperidin-1-yl)-2-(4-chloro-3-fluorophenyl)ethan-1-one], the IC50 in assay [1], in assay [2], in assay [3] and in assay [4] was 0.0001 to 10 µM each time.
In the case of `O=C(Cc1ccc(F)c(Cl)c1)N1CCC(C(F)(F)C(O)c2cc(Cl)cc3cn[nH]c23)CC1` (centres unmarked) [Compound P-0524, 1-(4-(2-(5-chloro-1H-indazol-7-yl)-1,1-difluoro-2-hydroxyethyl)piperidin-1-yl)-2-(3-chloro-4-fluorophenyl) ethan-1-one], the concentration for half-maximal inhibition (IC50) in assay [1], in assay [2], in assay [3] and in assay [4] was 0.0001 to 10 µM throughout.
With `O=C(Cc1ccnc(Cl)c1)N1CCC(C(F)(F)C(O)c2cc(Cl)cc3cn[nH]c23)CC1` (centres unmarked) [Compound P-0525, 1-(4-(2-(5-chloro-1H-indazol-7-yl)-1,1-difluoro-2-hydroxyethyl)piperidin-1-yl)-2-(2-chloropyridin-4-yl)ethan-1-one], the IC50 in assay [1], in assay [2], in assay [3] and in assay [4] was 0.0001 to 10 µM each time.
